# Results taken from patent US20110178053A1, “AZACARBOLINE DERIVATIVES, PREPARATION METHOD THEREOF AND THERAPEUTIC USE OF SAME” (SANOFI-AVENTIS, priority 2008, published 2011).
# How the values were obtained:
# Pim-1 = target: T1, Pim-1 (Homo sapiens, UniProt P11309); assay: TR-FRET assay, Pim-1 kinase (phosphorylation of Bad Ser112); format: biochemical; details: TR-FRET; ATP 40 μM; read-out: IC50 Pim1
# T1 construct: His6-labelled recombinant full-length human Pim-1, Pim-2 or Pim-3 protein; His6; made in house
# T1 sequence (P11309 whole entry): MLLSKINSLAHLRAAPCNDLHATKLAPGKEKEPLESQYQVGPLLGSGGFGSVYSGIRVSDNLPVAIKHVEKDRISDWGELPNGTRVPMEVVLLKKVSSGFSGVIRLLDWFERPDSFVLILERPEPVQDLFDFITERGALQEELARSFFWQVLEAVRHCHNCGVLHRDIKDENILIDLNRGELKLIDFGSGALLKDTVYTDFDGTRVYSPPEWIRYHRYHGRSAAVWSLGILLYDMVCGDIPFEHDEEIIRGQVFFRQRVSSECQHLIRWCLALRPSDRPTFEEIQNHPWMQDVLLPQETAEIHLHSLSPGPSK
# Summary of the method: (§1)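 Recombinant His6-tagged full-length human Pim-1, Pim-2 or Pim-3 phosphorylates His6-tagged full-length human Bad at 40 μM ATP (apparent KM). Phospho-Ser112 is detected by TR-FRET between Eu-labelled anti-phosphoBad and APC-labelled anti-His6 (665/615 nm ratio); 10-point duplicate series, top typically 30 μM, IC50 from 4-parameter logistic fit.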
# Pim-2 = target: T2, Pim-2 (Homo sapiens, UniProt Q9P1W9); assay: TR-FRET assay, Pim-2 kinase (phosphorylation of Bad Ser112); format: biochemical; details: TR-FRET; ATP 40 μM; read-out: IC50 Pim2
# T2 construct: His6-labelled recombinant full-length human Pim-1, Pim-2 or Pim-3 protein; His6; made in house
# T2 sequence (Q9P1W9 whole entry): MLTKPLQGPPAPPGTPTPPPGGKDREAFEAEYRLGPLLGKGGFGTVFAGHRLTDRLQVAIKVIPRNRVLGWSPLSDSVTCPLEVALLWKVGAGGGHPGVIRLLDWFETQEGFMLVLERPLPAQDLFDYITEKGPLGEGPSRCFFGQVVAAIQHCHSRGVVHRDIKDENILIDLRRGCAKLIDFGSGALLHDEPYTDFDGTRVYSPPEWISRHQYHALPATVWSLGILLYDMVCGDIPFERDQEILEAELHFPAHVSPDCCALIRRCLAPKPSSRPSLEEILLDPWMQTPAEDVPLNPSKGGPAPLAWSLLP
# Summary of the method: as §1
# Pim-3 = target: T3, Pim-3 (Homo sapiens, UniProt Q86V86); assay: TR-FRET assay, Pim-3 kinase (phosphorylation of Bad Ser112); format: biochemical; details: TR-FRET; ATP 40 μM; read-out: IC50 Pim3
# T3 construct: His6-labelled recombinant full-length human Pim-1, Pim-2 or Pim-3 protein; His6; made in house
# Summary of the method: as §1
# PLK1 = PLK1 (Homo sapiens, UniProt P53350); assay: PLK1 biochemical inhibition
# Chain of PLK1 (P53350 whole entry, species assumed): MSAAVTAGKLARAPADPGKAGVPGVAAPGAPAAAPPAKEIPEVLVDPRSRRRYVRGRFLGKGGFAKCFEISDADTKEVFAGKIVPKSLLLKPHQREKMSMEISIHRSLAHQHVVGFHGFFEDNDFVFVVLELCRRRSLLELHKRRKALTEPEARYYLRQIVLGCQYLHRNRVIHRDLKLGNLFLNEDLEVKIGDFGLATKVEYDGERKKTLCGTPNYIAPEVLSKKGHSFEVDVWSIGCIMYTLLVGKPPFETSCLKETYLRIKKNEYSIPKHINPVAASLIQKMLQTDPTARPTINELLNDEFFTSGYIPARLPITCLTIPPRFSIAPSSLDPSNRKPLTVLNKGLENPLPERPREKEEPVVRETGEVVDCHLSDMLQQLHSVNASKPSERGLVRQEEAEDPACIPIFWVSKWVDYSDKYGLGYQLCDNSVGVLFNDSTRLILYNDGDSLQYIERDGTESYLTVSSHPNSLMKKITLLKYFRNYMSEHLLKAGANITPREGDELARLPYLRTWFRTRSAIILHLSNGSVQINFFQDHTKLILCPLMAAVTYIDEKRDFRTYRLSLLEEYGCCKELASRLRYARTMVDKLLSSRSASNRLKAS
# EOL-1 = assay: Cell viability assay (CellTiter-Blue), EOL-1; format: cell-based; details: Homo sapiens, EOL1, read-out: EC50 EOL-1 μM (lymphoma); EOL-1 cells; cell proliferation/viability
# Text: (§2) The representative compounds of the invention are also screened as regards their effects on cell proliferation and viability using a variety of human tumour cell lines, which are representative of various pathological indications. These cell lines include: • Models of haematological cancers: • TF-1 (acute myelogenic leukaemia; AML M6 at the time of diagnosis); • KG-1 (AML; erythroleukaemia evolving into AML); • KG-1a (AML; sub-clone derived from immature KG-1); • EOL-1 (AML; eosinophilic leukaemia); • PL-21 (AML; M3); • ML-2 (AML; T-NHL evolving into T-ALL evolving into AML M4); • HL-60 (AML, M3); • Kasumi-1 (AML); • GDM-1 (AML); • K-562 (CML—chronic myelogenic leukaemia; blastic crisis); • JURL-MK1 (CML; blastic crisis); • DND-41 (T-ALL—-cell acute lymphoblastic leukaemia); • Jurkat (T-ALL); NALM-6 (B-ALL—B-cell ALL); • CEM (ALL; lymphosarcoma evolving into ALL); • Jeko-1 (B-NHL—B-cell non-Hodgkin lymphoma; mantle-cell lymphoma derived from a variant with large cells as a leukaemic transformation); • WSU-DLCL2 (B-NHL; large B-cell diffuse lymphoma); • RL (B-NHL; undifferentiated diffuse); • OCI-Ly10 (B-NHL); • DoHH-2 (B-NHL); • RPMI-8226 (MM—multiple myeloma); • JVM-2 (B-CLL—B-cell chronic lymphocytic leukaemia); and • JVM-3 (B-CLL) • MV4-11 (AML) • MOLM13 (AML). • Solid tumour models: • HCT-116 (bowel cancer); • HT-29 (bowel cancer); • HC-15 (bowel cancer); • H460 (lung cancer; non-small-cell lung cancer); • A375 (melanoma); • B16F10 (melanoma); • MDA-A1 (breast cancer); • MDA-MB231 (breast cancer); • MDA-MB231 adr (breast cancer); • PANC-1 (pancreatic cancer); and • PC-3 (prostate cancer).
# (§3) In order to measure the viability, the tumour cells are incubated in a 96-well or 384-well format for 48, 72 or 96 hours, preferably 72 hours, with a compound of the invention at dilutions of a factor 3 with, in general, nine doses in total, the highest dose being equal to 10 μM or 30 μM. The cell viability is evaluated by adding CellTiter-Blue® (Promega, Madison, Wis., United States) for 4 hours and end-point readings are taken using a SpectraMax Genmini EM (Molecular Devices, Sunnyvale, Calif., United States). The CellTiter-Blue® cell viability assay measures the ability of the cells in culture to reduce resazurin to resorufin, the fluorescence signal intensity being directly proportional to the number of live cells.
# MV4-11 = assay: Cell viability assay (CellTiter-Blue), MV4-11; format: cell-based; details: Homo sapiens; MV4-11 cells; cell proliferation/viability; read-out: IC50 MV4-11 μM (myeloma)
# Text: as §2, §3
# MOLM-13 = assay: Cell viability assay (CellTiter-Blue), MOLM-13; format: cell-based; details: Homo sapiens; MOLM-13 cells; cell proliferation/viability; read-out: IC50 MOLM-13 μM (myeloma)
# Text: as §2, §3
SMILES,IC50 (Pim-1),IC50 (Pim-2),IC50 (Pim-3),IC50 (PLK1),EC50 (EOL-1),IC50 (MV4-11),IC50 (MOLM-13)
"CC(C)N1CCN(c2ccc(-c3cnc4[nH]c5cnc(-c6cccnc6)cc5c4c3)cc2)CC1 [Example 122, 3-{4-[4-(propan-2-yl)piperazin-1-yl]phenyl}-6-(pyrid-3-yl)-9H-pyrrolo[2,3-b:5,4-c′]-dipyridine]",1 to 100 nM,100 to 1000 nM,1 to 100 nM,1000 to 5000 nM,1 to 100 nM,1 to 100 nM,–
"CCN(CC)CCCn1cc(-c2cnc3[nH]c4cnc(-c5cccnc5)cc4c3c2)cn1 [Example 127, N,N-diethyl-3-{4-[6-(pyrid-3-yl)-9H-pyrrolo-[2,3-b:5,4-c′]-dipyrid-3-yl]-1H-pyrazol-1-yl}-propan-l-amine]",1 to 100 nM,100 to 1000 nM,1 to 100 nM,1000 to 5000 nM,1 to 100 nM,1 to 100 nM,–
"OC(COc1ccc(-c2c(F)cnc3[nH]c4cnc(-c5cccnc5)cc4c23)cc1)CN1CCOCC1 (stereo not drawn) [Example 101, 1-{4-[3-fluoro-6-(pyrid-3-yl)-9H-pyrrolo[2,3-b:5,4-c′]dipyrid-4-yl]phenoxy}-3-(morpholin-4-yl)propan-2-ol]",1 to 100 nM,100 to 1000 nM,1 to 100 nM,1 to 100 nM,–,–,–
"Fc1cnc2[nH]c3cnc(-c4cccnc4)cc3c2c1C1CC1 [Example 32, 4-cyclopropyl-3-fluoro-6-(pyrid-3-yl)-9H-pyrrolo[2,3-b:5,4-c′]dipyridine]",1 to 100 nM,1000 to 5000 nM,1 to 100 nM,1 to 100 nM,–,–,–
"COc1cnc2[nH]c3cnc(-c4cnn(C)c4)cc3c2c1 [Example 163, 3-methoxy-6-(1-methyl-1H-pyrazol-4-yl)-9H-pyrrolo[2,3-b:5,4-c′]dipyridine]",1 to 100 nM,100 to 1000 nM,1 to 100 nM,1000 to 5000 nM,100 to 1000 nM,100 to 1000 nM,–
"CCN1CCN(C(C)(C)C#Cc2c(F)cnc3[nH]c4cnc(-c5cccnc5)cc4c23)CC1 [Example 92, 4-[3-(4-ethylpiperazin-1-yl)-3-methylbut-1-yn-1-yl]-3-fluoro-6-(pyrid-3-yl)-9H-pyrrolo-[2,3-b:5,4-c′]dipyridine]",1 to 100 nM,1000 to 5000 nM,1 to 100 nM,100 to 1000 nM,100 to 1000 nM,1000 to 5000 nM,–
"CN(c1ccc(-c2c(F)cnc3[nH]c4cnc(-c5cccnc5)cc4c23)cc1)S(C)(=O)=O [Example 48, N-{-4-[3-fluoro-6-(pyrid-3-yl)-9H-pyrrolo[2,3-b:5,4-c′]dipyrid-4-yl]-phenyl}-N-methyl-methanesulfonamide]",1 to 100 nM,100 to 1000 nM,1 to 100 nM,100 to 1000 nM,–,–,–
"CCN(CC)CCCN1CCN(c2c(F)cnc3[nH]c4cnc(-c5cccnc5)cc4c23)CC1 [Example 89, N,N-diethyl-3-{4-[3-fluoro-6-(pyrid-3-yl)-9H-pyrrolo[2,3-b:5,4-c′]dipyrid-4-yl]piperazin-1-yl}propan-1-amine]",1 to 100 nM,1000 to 5000 nM,100 to 1000 nM,1000 to 5000 nM,–,–,–
"c1cncc(-c2cc3c(cn2)[nH]c2ncc(-c4cnn(CCN5CCOCC5)c4)cc23)c1 [Example 115, 3-{1-[2-(morpholin-4-yl)ethyl]-1H-pyrazol-4-yl}-6-(pyrid-3-yl)-9H-pyrrolo[2,3-b:5,4-c′]dipyridine]",1 to 100 nM,1000 to 5000 nM,1 to 100 nM,1000 to 5000 nM,–,–,–
"CN(C)CCCN(c1ccc(-c2c(F)cnc3[nH]c4cnc(-c5cccnc5)cc4c23)cc1)S(C)(=O)=O [Example 49, N-[3-(dimethylamino)propyl]-N-{4-[3-fluoro-6-(pyrid-3-yl)-9H-pyrrolo[2,3-b:5,4-c′]-dipyrid-4-yl]phenyl}methanesulfonamide]",1 to 100 nM,1 to 100 nM,1 to 100 nM,100 to 1000 nM,1 to 100 nM,1 to 100 nM,–
"O=S(=O)(CCl)Nc1ccc(-c2c(F)cnc3[nH]c4cnc(-c5cccnc5)cc4c23)cc1 [Example 45, 1-chloro-N-{4-[3-fluoro-6-(pyrid-3-yl)-9H-pyrrolo[2,3-b:5,4-c′]dipyrid-4-yl]-phenyl}-methanesulfonamide]",1 to 100 nM,1000 to 5000 nM,1 to 100 nM,1 to 100 nM,–,–,–
"COc1cc(-c2c(F)cnc3[nH]c4cnc(-c5cccnc5)cc4c23)ccc1NS(C)(=O)=O [Example 47, N-{-4-[3-fluoro-6-(pyrid-3-yl)-9H-pyrrolo[2,3-b:5,4-c′]dipyrid-4-yl]-2-methoxyphenyl}-methanesulfonamide]",1 to 100 nM,1000 to 5000 nM,1 to 100 nM,100 to 1000 nM,–,–,–
"Fc1cnc2[nH]c3cnc(-c4cccnc4)cc3c2c1-c1ccc(OCCN2CCOCC2)cc1 [Example 99, 3-fluoro-4-{4-[2-(morpholin-4-yl)ethoxy]phenyl}-6-(pyrid-3-yl)-9H-pyrrolo[2,3-b:5,4-c′]dipyridine]",1 to 100 nM,1000 to 5000 nM,100 to 1000 nM,100 to 1000 nM,–,–,–
"c1cnc2[nH]c3cnc(-c4ccoc4)cc3c2c1 [Example 40, 6-furan-3-yl-9H-pyrrolo[2,3-b:5,4-c′]dipyridine]",100 to 1000 nM,> 5000 nM,1000 to 5000 nM,> 5000 nM,–,–,–
"COc1ccccc1-c1c(F)cnc2[nH]c3cnc(-c4cccnc4)cc3c12 [Example 63, 3-fluoro-4-(2-methoxyphenyl)-6-(pyrid-3-yl)-9H-pyrrolo[2,3-b:5,4-c′]-dipyridine]",1 to 100 nM,> 5000 nM,100 to 1000 nM,1 to 100 nM,–,–,–
"CCOc1cnc2[nH]c3cnc(-c4cccnc4)cc3c2c1 [Example 112, 3-ethoxy-6-(pyrid-3-yl)-9H-pyrrolo[2,3-b:5,4-c′]dipyridine]",1 to 100 nM,100 to 1000 nM,1 to 100 nM,100 to 1000 nM,–,–,–
"OCc1cccc(-c2cnc3[nH]c4cnc(-c5cccnc5)cc4c3c2)c1 [Example 118, {3-[6-(pyrid-3-yl)-9H-pyrrolo-[2,3-b:5,4-c′]-dipyrid-3-yl]-phenyl}methanol]",1 to 100 nM,100 to 1000 nM,1 to 100 nM,100 to 1000 nM,–,–,–
"CCCNc1cnc2[nH]c3cnc(-c4cccnc4)cc3c2c1 [Example 110, N-propyl-6-(pyrid-3-yl)-9H-pyrrolo[2,3-b:5,4-c′]dipyrid-3-amine]",1 to 100 nM,1000 to 5000 nM,100 to 1000 nM,1000 to 5000 nM,–,–,–
"Oc1ccc(-c2c(F)cnc3[nH]c4cnc(-c5cccnc5)cc4c23)cc1 [Example 95, 4-[3-fluoro-6-(pyrid-3-yl)-9H-pyrrolo[2,3-b:5,4-c′]dipyrid-4-yl]phenol]",1 to 100 nM,100 to 1000 nM,100 to 1000 nM,1 to 100 nM,–,–,–
"COc1cnc2[nH]c3cnc(-c4cnn(CC(=O)NCCN(C)C)c4)cc3c2c1 [Example 165, N-[2-(dimethylamino)ethyl]-2-[4-(3-methoxy-9H-pyrrolo[2,3-b:5,4-c′]dipyrid-6-yl)-1H-pyrazol-1-yl]acetamide]",100 to 1000 nM,> 5000 nM,100 to 1000 nM,> 5000 nM,–,–,–
"CCN1CCCC1Cn1cc(-c2cnc3[nH]c4cnc(-c5cccnc5)cc4c3c2)cn1 (stereo not drawn) [Example 128, 3-{1-[(1-ethylpyrrolidin-2-yl)methyl]-1H-pyrazol-4-yl}-6-(pyrid-3-yl)-9H-pyrrolo[2,3-b:5,4-c′]dipyridine]",–,–,–,–,1 to 100 nM,1 to 100 nM,1 to 100 nM
